Measured values from patent publication US20220241255A1, “COMBINATION CONTAINING SGC ACTIVATORS AND MINERALOCORTICOID RECEPTOR ANTAGONISTS” (Bayer Pharma Aktiengesellschaft, priority 2016, published 2022).

Legend:
[1] = system: L-NAME-treated transgenic renin rat (TGR(mRen2)27); test: Proteinuria (protein/creatinine quotient in urine) in L-NAME-treated renin transgenic rats; type: in vivo; conditions: for reduction of proteinuria, measured as protein/creatinine quotient in urine: finerenone 10 mg/kg od, compound of the formula (X) 1 mg/kg bid, alone or combined, versus placebo; for Urinary protein/creatinine quotient, % change vs placebo: proteinuria in % reduction from placebo at the end of the study, mean ± SEM, groups and doses per Table 1
From the text: (§1) 3.) L-NAME-treated transgenic renin rat (TGR(mRen2)27)
(§2) The transgenic renin rat ‘TGR(mRen2)27’ is a hypertensive rat line developed by Mullins and Ganten which overexpresses the Ren-2 gene of the mouse. Additional administration of the nitrogen monoxide synthase inhibitor L-NAME induces endothelial dysfunction which increases morbidity and mortality in this model. Unless subjected to life-long antihypertensive therapy, homozygous animals die of secondary complications such as heart and kidney failure or stroke.
(§3) Male TGR(mRen2)27 renin rats aged 10 to 20 weeks are randomized to different pharmacological treatment groups and a placebo group. In addition, the nitrogen monoxide synthase inhibitor L-NAME is administered via the drinking water in a concentration of 30 to 100 mg/l. During the entire experiment, drinking water and feed are available ad libitum to the animals. The substances are administered via the feed or daily by gavage for 4-10 weeks. Animals treated in the same way but receiving either only the solvent or the feed without test substance serve as placebo group. During the experiment, the systolic blood pressure is determined at regular intervals using a tail cuff, and proteinuria and urine electrolyte composition are determined by collecting the urine in metabolic cages. At the end of the experiment, haemodynamic parameters (blood pressure, heart rate, inotropism[dp/dt], relaxation time[tau], maximum left ventricular pressure, left ventricular end-diastolic pressure[LVEDP]) are measured, and the weights of heart, kidney and lung are determined, protein elimination and biomarkers (e.g. ANP, RIA Kit RK 005-24, Phoenix Pharmaceuticals, Inc., USA, cGMP, RIA Kit RE29075, IBL International GmbH, Hamburg, Germany, renin, angiotensin I, RIA Kit CA-1533, DiaSorin S.p.A., Italy, and aldosterone, P2714, DiaSorin S.p.A., Italy) and gene expression of biomarkers by RT/TaqMan PCR following RNA isolation from cardiac and renal tissue are determined.
(§4) Cardiac and cardiovascular disorders as well as renal and cardiorenal disorders are characterized by high patient morbidity and also high mortality. This morbidity and mortality, together with various risk factors such as hypertension, can be reproduced very accurately in the above-described animal model of the L-NAME-treated renin transgenic rat. Therefore, this animal model, for example, was used to investigate MR antagonists such as, for example, finerenone according to the compound of the formula (IV) and sGC activators such as, for example, the compound of the formula (X), and combinations of both: […]
Here, the quotient of protein excreted in the urine and creatinine excreted in the urine, the so-called protein/creatinine quotient, which can be used as a quantitative measure for the kidney damage, is determined.

[2] = system: L-NAME-treated transgenic renin rat (TGR(mRen2)27); test: All-cause mortality / survival in L-NAME-treated renin transgenic rats; type: in vivo; conditions: for Mortality: all-cause mortality during the study period, daily gavage, 15 animals per group, groups and doses per Table 1; for survival rate / animals died during the study period: finerenone 10 mg/kg od, compound of the formula (X) 1 mg/kg bid, alone or combined; for survival rate: over the study period, placebo survival 60%; for animals died during the study period: study terminated after 40% of placebo animals had died
From the text: as §1, §2, §3, §4
For example, the MR antagonist finerenone, corresponding to the compound of the formula (IV), and the sGC activator, corresponding to the compound of the formula (X), were tested on their own and in combinations in TGR(mRen2)27 renin rats aged 10 to 20 weeks. In addition, the nitrogen monoxide synthase inhibitor L-NAME was administered via the drinking water in a concentration of 30 to 100 mg/l. During the entire experiment, drinking water and feed were available ad libitum to the animals. The substances were administered daily by gavage for 4-10 weeks. Animals treated in the same way but receiving only the solvent for the test substance served as placebo group. In the test series, in addition to placebo (group A), the MR antagonist finerenone (10 mg/kg od) (group B) and the sGC activator corresponding to the compound of the formula (X) (1 mg/kg bid) (group C) on their own and a combination of finerenone (10 mg/kg od)+compound of the formula (X) (1 mg/kg bid) (group D) were administered. In this study, 15 animals were used per group (A, B, C, D) (Table 1):
After 40% of the placebo animals had died—the study was generally terminated once 40-50% of the placebo-treated animals had died, which corresponds to a survival rate of 60-50%—the study was terminated and the survival rates of the individual treatment groups were compared to one another.

SMILES | reduction of proteinuria, measured as protein/creatinine quotient in urine [1] [%] | Urinary protein/creatinine quotient, % change vs placebo [1] | Mortality [2] [%] | survival rate [2] [%] | animals died during the study period [2] [%]
C[C@H]([C@H](C(=O)Nc1cc([C@@H](CC(=O)O)C2CC2)ccc1Cl)c1ccc(Cl)cc1)C(F)(F)F [compound of the formula (X), (3S)-3-(4-chloro-3-{[(2S,3R)-2-(4-chlorophenyl)-4,4,4-trifluoro-3-methylbutanoyl]amino}phenyl)-3-cyclopropylpropanoic acid] | 8 | −8 + 20% | 27 | 73 | 27
CCOc1ncc(C)c2c1[C@H](c1ccc(C#N)cc1OC)C(C(N)=O)=C(C)N2 [finerenone, (S)-4-(4-cyano-2-methoxyphenyl)-5-ethoxy-2,8-dimethyl-1,4-dihydro-1,6-naphthyridine-3-carboxamide] | 58 | −58 + 16% | 20 | 80 | 20
